Test results from patent publication US20250230438A1, “NEURAL REPAIR THROUGH INHIBITION OF REG3A SIGNALING” (UNIVERSITY OF SOUTH CAROLINA, priority 2023, published 2025).
“Also recorded” adds a separate entry of the source.

Columns and labels:
[1] = test system: KHSRP; experiment: Axonal KHSRP protein levels in DRG cultures; assay type: cell-based, mouse; conditions: for effect on recREG3A-dependent increase in axonal KHSRP: co-treatment with recREG3A
From the text: (§1) Specifically, it was observed that KHSRP protein increases in regenerating sciatic nerve axons, which promotes decay of regeneration-associated mRNAs including Gap43 and Snap25 mRNAs. Thus, herein it was investigated whether REG3A effects might converge on Khsrp mRNA.

[2] = test system: dorsal root ganglia (DRG) neurons; experiment: Axon growth and branching in dissociated adult mouse DRG cultures; assay type: cell-based; conditions: for effect on recREG3A-induced decrease in axon growth / effect on recREG3A-induced increase in axon branching: co-treatment with recREG3A
From the text: Previously, it was shown that Reg3A mRNA expression increases after nerve injury and the mRNA is transported into regenerating peripheral nerve axons and spinal cord axon. The spinal cord model used a peripheral nerve graft to support regenerating of ascending spinal cord axons after transection. To determine if REG3A protein might affect axon growth, whether the dorsal root ganglia (DRG) neurons respond to recombinant human REG3A (recREG3A) was investigated.
shRNA depletion of Reg3A mRNA was used to determine if the endogenous REG3A protein reduces axon growth.
as §1

[3] = test system: eIF2α^PS51; experiment: eIF2α^PS51 immunofluorescence in growth cones of DRG cultures; assay type: cell-based; conditions: acute treatment of adult mouse DRG cultures
From the text: Previously, it was observed that axonal Khsrp mRNA translation is increased by activation of the PERK and subsequent PERK-dependent serine 51 phosphorylation of the translation initiation factor eIF2a. […] PERK inhibition similar reduced the REG3A-dependent translation of axonal GFP^MYR5′/3′khsrp in FRAP assays (FIG. 9C).

[4] = test system: growth cone calcium; experiment: Axonal/growth cone calcium by GCaMP fluorescence in DRG spot cultures; assay type: cell-based, mouse; conditions: DRG spot cultures with AAV9-GCaMP
From the text: The findings above provide circumstantial but not direct evidence for elevated axoplasmic calcium as a key regulator of REG3A's effects on axons. As such, herein it was investigated whether REG3A increases calcium levels in DRG neurons using genetically encoded GCaMP fluorescent calcium indicator in DRG spot cultures. For this, DRG spot cultures were co-transduced with AAV9-GCaMP. […] Axonal calcium levels are known to increase immediately after axotomy but based on translational regulation of different axonal mRNAs that respond to elevated vs. normal axonal calcium levels, the axotomy induced increase in calcium returns to pre-injury levels within 16 hours after axotomy to allow translation of axonal mRNAs encoding regeneration-associated proteins. Thus, intra-axonal calcium levels in regenerating axons were monitored beginning at 16 hours after axotomy. The regenerating axons show an oscillatory GCaMP signal with broad peaks approximately every 50-70 min over a 4-hour period in AAV9-shCntl-transduced DRG spot cultures (FIG. 8E).

CC(=O)OCOC(=O)CN(CC(=O)OCOC(C)=O)c1ccccc1OCCOc1ccccc1N(CC(=O)OCOC(C)=O)CC(=O)OCOC(C)=O [BAPTA-AM]
effect on recREG3A-dependent increase in axonal KHSRP [1]: attenuated
effect on recREG3A-induced decrease in axon growth [2]: blocked
effect on recREG3A-induced increase in axon branching [2]: blocked

O=C(O)CN(CC(=O)O)c1ccccc1OCCOc1ccccc1N(CC(=O)O)CC(=O)O [BAPTA]
effect on recREG3A-dependent increase in axonal KHSRP [1]: also attenuated

C[C@@H]1C[C@@H]([C@H](O)CC2CC(=O)NC(=O)C2)C(=O)[C@@H](C)C1 [cycloheximide]
effect on recREG3A-dependent increase in axonal KHSRP [1]: did not occur
effect on recREG3A-induced decrease in axon growth [2]: prevented
effect on recREG3A-induced increase in axon branching [2]: prevented

B1: recREG3A: recombinant human REG3A (recREG3A) (protein)
chain: EDFQKEVPSPRTSCPMGYKAYRSHCYALVMTPKSWFQADLVCQKRPSGHLVSILSGGEASFVSSLVNGRVDNYQDIWIGLHDPTMGQQPNGGGWEWSNSDVLNYLNWDGDPSSTVNRGHCGSLTASSGFLKWGDYYCDGTLPFVCKFKQ
KHSRP levels in distal axons ([1]; recREG3A application): increased KHSRP levels in distal axons
eIF2α^PS51 levels in growth cones [3]: increased eIF2α^PS51 levels in growth cones
axon branching ([2]; bath application of recREG3A, adult mouse sensory neurons): increased axon branching
axon growth ([2]; bath application of recREG3A, adult mouse sensory neurons, 24-hour exposure): reduced axon growth; also recorded: decreases axon extension
growth cone / intra-axonal calcium levels (GCaMP) [4]: significantly increased growth cone calcium
growth cone / intra-axonal calcium levels (GCaMP) ([4]; listed as RecREG3A): increases
